In US5086056A, “2-(heterocyclylalkyl)imidazopyridines” (Janssen Pharmaceutica N.V., priority 1987, dated 1992):

The molecules below were run on compound 48/80-induced lethality (assay: Protection of rats from compound 48/80-induced lethality). Details: Rattus norvegicus; dose protecting 50% of animals; s.c. or oral, 1 hour before compound 48/80 0.5 mg/kg i.v.; survival after 4 hours; read-out: compound 48/80 lethality test in rats-ED50.
Assay type: in vivo, rat (male, inbred Wistar strain)
Description: Protection of rats from compound 48/80-induced lethality
Compound 48/80, a mixture of oligomers obtained by condensation of 4-methoxy-N-methylbenzeneethanamine and formaldehyde has been described as a potent histamine releasing agent (Int. Arch. Allergy, 13, 336 (1958)). The protection from compound 48/80-induced lethal circulatory collapse appears to be a simple way of evaluating quantitatively the antihistaminic activity of test compounds. Male rats of an inbred Wistar strain, weighing 240-260 g were used in the experiment. After overnight starvation the rats were transferred to conditioned laboratories (temp.=21°±1° C., relative humidity=65±5%). The rats were treated subcutaneously or orally with a test compound or with the solvent (NaCl solution, 0.9%). One hour after treatment there was injected intraveneously compound 48/80, freshly dissolved in water, at a dose of 0.5 mg/kg (0.2 ml/100 g of body weight). In control experiments, wherein 250 solvent-treated animals were injected with the standard dose of compound 48/80, not more than 2.8% of the animals survived after 4 hours. Survival after 4 hours is therefore considered to be a safe criterion of a protective effect of drug administration. Said ED50 -values are the values in mg/kg body weight at which the tested compounds protect 50% of the tested animals against compound 48/80-induced lethality.
In the case of `CCOCCn1c(CN2CCN(CCCC(C)=O)CC2)nc2cccnc21` [Compound 44], the ED50 is reported as 0.005 mg/kg.
In the case of `CCOCCn1c(CN2CCN(CCc3ccc(OC)cc3)CC2)nc2cccnc21` [Compound 47], the ED50 is reported as 0.02 mg/kg.
With `C#CCOCCn1c(CN2CCN(C)CC2)nc2cccnc21` [Compound 125, 2-[(4-methyl-1-piperazinyl)methyl]-3-[2-(2-propynyloxy)ethyl]-3H-imidazo[4,5-b]pyridine] the ED50 was 0.02 mg/kg.
With `C=CCOCCn1c(CN2CCN(C)CC2)nc2cccnc21` [Compound 126, 2-[(4-methyl-1-piperazinyl)methyl]-3-[2-(2-propenyloxy)ethyl]-3H-imidazo[4,5-b]pyridine] the ED50 was 0.02 mg/kg.
In the case of `CCOCCn1c(CN2CCN(CCNC(=O)c3cccn3C)CC2)nc2cccnc21` [Compound 111, N-[2-[4-[[3-(2-ethoxyethyl)-3H-imidazo[4,5-b]pyridin-2-yl]methyl]-1-piperazinyl]ethyl]-1-methyl-1H-pyrrole-2-carboxamide], the ED50 is reported as 0.02 mg/kg.
For `CCOCCn1c(CN2CCN(C)CC2)nc2cccnc21` [Compound 17, 3-(2-ethoxyethyl)-2-[(4-methyl-1-piperazinyl)methyl]-3H-imidazo[4,5-b]pyridine], the ED50 was 0.04 mg/kg.
Molecule `CCOCCN1CCN(Cc2nc3cccnc3n2CCOCC)CC1` [Compound 42] has an ED50 of 0.02 mg/kg.
`CCOCCn1c(CN2CCN(CCc3c(C)nc4ccccn4c3=O)CC2)nc2cccnc21` [Compound 76, 3-[2-[4-[[3-(2-ethoxyethyl)-3H-imidazo[4,5-b]pyridin-2-yl]methyl]-1-piperazinyl]ethyl]-2-methyl-4H-pyrido[1,2-a]pyrimidin-4-one] showed an ED50 of 0.02 mg/kg.
`CCOCCn1c(CN2CCN(CCc3scnc3C)CC2)nc2cccnc21` [Compound 74, 3-(2-ethoxyethyl)-2-[[4-[2-(4-methyl-5-thiazolyl)ethyl]-1-piperazinyl]methyl]-3H-imidazo[4,5-b]pyridine] showed an ED50 of 0.01 mg/kg.
For `CCOCCn1c(CN2CCN(CCc3ccccn3)CC2)nc2cccnc21` [Compound 120, 3-(2-ethoxyethyl)-2-[[4-[2-(2-pyridinyl)ethyl]-1-piperazinyl]methyl]-3H-imidazo[4,5-b]pyridine], the ED50 was 0.005 mg/kg.
For `CCOCCn1c(CN2CCN(CCC(=O)NC(C)C)CC2)nc2cccnc21` [Compound 93, 4-[[3-(2-ethoxyethyl)-3H-imidazo[4,5-b]pyridin-2-yl]methyl]-N-(1-methylethyl)-1-piperazinepropanamide], the ED50 was 0.01 mg/kg.
`CCOCCn1c(CN2CCN(CCNC(=O)c3ccoc3)CC2)nc2cccnc21` [Compound 110, N-[2-[4-[[3-(2-ethoxyethyl)-3H-imidazo[4,5-b]pyridin-2-yl]methyl]-1-piperazinyl]ethyl]-3-furancarboxamide] was tested, and the ED50 was 0.01 mg/kg.
`CCOCCn1c(CN2CCN(CCCOc3ccc(F)cc3)CC2)nc2cccnc21` [Compound 79, 3-(2-ethoxyethyl)-2-[[4-[3-(4-fluorophenoxy)propyl]-1-piperazinyl]methyl]-3H-imidazo[4,5-b]pyridine] showed an ED50 of 0.02 mg/kg.
Molecule `Cc1ccc(Cn2c(CN3CCN(C)CC3)nc3cccnc32)o1` [Compound 14, 3-[(5-methyl-2-furanyl)methyl]-2-[ (4-methyl-1-piperazinyl)methyl]-3H-imidazo[4,5-b]pyridine] has an ED50 of 0.01 mg/kg.
`CCOCCn1c(CN2CCN(CCNc3ncccn3)CC2)nc2cccnc21` [Compound 105, N-[2-[-4-[[3-(2-ethoxyethyl)-3H-imidazo[4,5-b]pyridin-2-yl]methyl]-1-piperazinyl]ethyl]-2-pyrimidinamine] gave an ED50 of 0.01 mg/kg.
Molecule `CCOCCn1c(CN2CCN(CCCn3c(=O)[nH]c4ccccc43)CC2)nc2cccnc21` [Compound 77, 1-[3-[4-[[3-(2-ethoxyethyl)-3H-imidazo[4,5-b]pyridin-2-yl]methyl]-1piperazinyl]propyl]-1,3-dihydro-2H-benzimidazol-2-one] has an ED50 of 0.02 mg/kg.
